Source: patent publication US20230062100A1, “SUBSTITUTED AMINOQUINOLONES AS DGKALPHA INHIBITORS FOR IMMUNE ACTIVATION” (Bayer Aktiengesellschaft, priority 2019, published 2023)

Target: DGKα (Homo sapiens, UniProt P23743)
Assay: Human DGKα kinase activity inhibition assay (ADP-Glo)
Format: biochemical
Conditions: in vitro human DGKα kinase activity inhibition assay
Outline: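 C-terminally FLAG-tagged full-length human DGKα from baculovirus/insect cells (typically ~0.1 nM) phosphorylated 1,2-dioleoyl-sn-glycerol in octyl-β-D-glucopyranoside micelles in MOPS pH 7.4. ADP formed was quantified by ADP-Glo luminescence after 1 h ATP depletion at 22 °C.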

Chain of DGKα (P23743 with tags, fused parts or gaps): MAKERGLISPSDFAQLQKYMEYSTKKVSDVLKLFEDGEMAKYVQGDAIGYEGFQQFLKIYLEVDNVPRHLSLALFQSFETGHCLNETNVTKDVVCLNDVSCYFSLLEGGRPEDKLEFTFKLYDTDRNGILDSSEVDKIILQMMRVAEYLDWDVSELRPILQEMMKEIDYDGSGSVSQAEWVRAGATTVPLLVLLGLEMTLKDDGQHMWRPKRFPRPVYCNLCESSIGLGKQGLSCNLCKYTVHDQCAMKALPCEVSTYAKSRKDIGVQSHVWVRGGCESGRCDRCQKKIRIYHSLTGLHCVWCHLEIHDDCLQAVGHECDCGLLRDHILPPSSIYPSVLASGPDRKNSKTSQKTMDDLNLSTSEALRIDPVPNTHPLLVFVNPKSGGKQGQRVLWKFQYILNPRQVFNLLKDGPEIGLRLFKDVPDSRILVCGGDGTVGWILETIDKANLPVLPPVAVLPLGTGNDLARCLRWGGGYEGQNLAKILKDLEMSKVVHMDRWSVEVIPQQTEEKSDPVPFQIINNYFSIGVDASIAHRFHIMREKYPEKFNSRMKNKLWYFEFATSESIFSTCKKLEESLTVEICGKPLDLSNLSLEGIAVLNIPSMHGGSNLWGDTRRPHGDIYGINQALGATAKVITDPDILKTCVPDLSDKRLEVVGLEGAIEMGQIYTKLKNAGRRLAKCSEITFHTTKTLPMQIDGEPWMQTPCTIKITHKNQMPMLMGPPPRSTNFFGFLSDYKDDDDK

IC50 [nM]	SMILES
3.9	Cn1c(=O)c(C#N)c(N2CCC(Oc3ccc(OC(F)(F)F)cc3)CC2)c2ccccc21 [Example 2, 1-methyl-2-oxo-4-{4-[4-(trifluoromethoxy)phenoxy]piperidin-1-yl}-1,2-dihydroquinoline-3-carbonitrile]
34	Cn1c(=O)c(C#N)c(N2CCC(COc3cccc(Cl)c3)CC2)c2ccccc21 [Example 119, 4-{4-[(3-chlorophenoxy)methyl]piperidin-1-yl}-1-methyl-2-oxo-1,2-dihydroquinoline-3-carbonitrile]
27	Cn1c(=O)c(C#N)c(N2CCC(Oc3cccc(Cl)c3)CC2)c2ccc(Br)cc21 [Example 60, 7-bromo-4-[4-(3-chlorophenoxy)piperidin-1-yl]-1-methyl-2-oxo-1,2-dihydroquinoline-3-carbonitrile]
1.9	Cn1c(=O)c(C(N)=O)c(N2CCC(Oc3ccc(OC(F)(F)F)cc3)CC2)c2ccc(Cl)cc21 [Example 98, 7-chloro-1-methyl-2-oxo-4-{4-[4-(trifluoromethoxy)phenoxy]piperidin-1-yl}-1,2-dihydroquinoline-3-carboxamide]
12	Cn1c(=O)c(C#N)c(N2CCC(Oc3ccc(OC(F)(F)F)cc3)CC2)c2ccc(F)cc21 [Example 63, 7-fluoro-1-methyl-2-oxo-4-{4-[4-(trifluoromethoxy)phenoxy]piperidin-1-yl}-1,2-dihydroquinoline-3-carbonitrile]
60	Cc1ccc2c(c1)c(N1CCC(Oc3ccccc3Cl)CC1)c(C#N)c(=O)n2C [Example 151, 4-[4-(2-chlorophenoxy)piperidin-1-yl]-1,6-dimethyl-2-oxo-1,2-dihydroquinoline-3-carbonitrile]
19	Cn1c(=O)c(C#N)c(N2CCC(Oc3ccc(OC(F)(F)F)cc3)CC2)c2ccc(Br)cc21 [Example 58, 7-bromo-1-methyl-2-oxo-4-{4-[4-(trifluoromethoxy)phenoxy]piperidin-1-yl}-1,2-dihydroquinoline-3-carbonitrile]
40	Cn1c(=O)c(C#N)c(N2CCCC(Oc3ccc(N4CCC4)cc3)CC2)c2ccccc21 (racemic) [Example 104, (rac)-4-{4-[4-(azetidin-1-yl)phenoxy]azepan-1-yl}-1-methyl-2-oxo-1,2-dihydroquinoline-3-carbonitrile]
8.6	CC(C)Oc1ccc(OC2CCN(c3c(C#N)c(=O)n(C)c4ccccc34)CC2)cc1 [Example 47, 1-methyl-2-oxo-4-(4-{4-[(propan-2-yl)oxy]phenoxy}piperidin-1-yl)-1,2-dihydroquinoline-3-carbonitrile]
59	Cc1ccc2c(c1)c(N1CCC(Oc3ccccc3Cl)CC1)c(C(N)=O)c(=O)n2C [Example 163, 4-[4-(2-chlorophenoxy)piperidin-1-yl]-1,6-dimethyl-2-oxo-1,2-dihydroquinoline-3-carboxamide]
33	Cn1cc(-c2ccc(OC3CCCN(c4c(C#N)c(=O)n(C)c5ccccc45)CC3)cc2)cn1 (racemic) [Example 105, (rac)-1-methyl-4-{4-[4-(1-methyl-1H-pyrazol-4-yl)phenoxy]azepan-1-yl}-2-oxo-1,2-dihydroquinoline-3-carbonitrile]
1530	Cn1c(=O)c(C#N)c(N2CCC(Oc3ccc(N=S(C)(C)=O)cc3)CC2)c2ccccc21 [Example 30, 4-[4-(4-{[dimethyl(oxo)-λ^6-sulfanylidene]amino}phenoxy)piperidin-1-yl]-1-methyl-2-oxo-1,2-dihydroquinoline-3-carbonitrile]
521	Cn1c(=O)c(C#N)c(N2CCC(Oc3cnc(C(F)(F)F)nc3)CC2)c2ccccc21 [Example 28, 1-methyl-2-oxo-4-(4-{[2-(trifluoromethyl)pyrimidin-5-yl]oxy}piperidin-1-yl)-1,2-dihydroquinoline-3-carbonitrile]
6.8	COc1cc(C)ccc1OC1CCN(c2c(C#N)c(=O)n(C)c3ccccc23)CC1 [Example 31, 4-[4-(2-methoxy-4-methylphenoxy)piperidin-1-yl]-1-methyl-2-oxo-1,2-dihydroquinoline-3-carbonitrile]
29	Cn1c(=O)c(C#N)c(N2CCC(Oc3ccc(OC(F)(F)F)cc3)CC2)c2cccc(F)c21 [Example 129, 8-fluoro-1-methyl-2-oxo-4-{4-[4-(trifluoromethoxy)phenoxy]piperidin-1-yl}-1,2-dihydroquinoline-3-carbonitrile]
25	Cn1c(=O)c(C#N)c(N2CCC(Oc3ccc(F)cc3)CC2)c2ccc(N3CCCC3=O)cc21 [Example 84, 4-[4-(4-fluorophenoxy)piperidin-1-yl]-1-methyl-2-oxo-7-(2-oxopyrrolidin-1-yl)-1,2-dihydroquinoline-3-carbonitrile]
13	Cn1c(=O)c(C#N)c(N2CCC(Oc3cccc(Cl)c3)CC2)c2ccc(C3COC3)cc21 [Example 73, 4-[4-(3-chlorophenoxy)piperidin-1-yl]-1-methyl-7-(oxetan-3-yl)-2-oxo-1,2-dihydroquinoline-3-carbonitrile]
10	Cc1cccc(COC2CCN(c3c(C#N)c(=O)n(C)c4ccccc34)CC2)c1 [Example 108, 1-methyl-4-{4-[(3-methylphenyl)methoxy]piperidin-1-yl}-2-oxo-1,2-dihydroquinoline-3-carbonitrile]

IC50 [nM]	SMILES
12	Cn1c(=O)c(C#N)c(N2CCC(OCc3cccc(F)c3)CC2)c2ccccc21 [Example 113, 4-{4-[(3-fluorophenyl)methoxy]piperidin-1-yl}-1-methyl-2-oxo-1,2-dihydroquinoline-3-carbonitrile]
0.97	Cn1c(=O)c(C#N)c(N2CCC(Oc3ccc(OC(F)(F)F)cc3)CC2)c2cc(F)ccc21 [Example 166, 6-fluoro-1-methyl-2-oxo-4-{4-[4-(trifluoromethoxy)phenoxy]piperidin-1-yl}-1,2-dihydroquinoline-3-carbonitrile]
17	Cn1c(=O)c(C#N)c(N2CCC(Oc3ccccc3)CC2)c2ccc(OC3CC3)cc21 [Example 70, 7-(cyclopropyloxy)-1-methyl-2-oxo-4-(4-phenoxypiperidin-1-yl)-1,2-dihydroquinoline-3-carbonitrile]
536	Cn1c(=O)c(C#N)c(N2CCC(Oc3ccc(OC(F)(F)F)cc3)CC2)c2cccc(C#N)c21 [Example 132, 1-methyl-2-oxo-4-{4-[4-(trifluoromethoxy)phenoxy]piperidin-1-yl}-1,2-dihydroquinoline-3,8-dicarbonitrile]
16	Cn1c(=O)c(C(N)=O)c(N2CCC(OCc3ccccc3)CC2)c2ccccc21 [Example 121, 4-[4-(benzyloxy)piperidin-1-yl]-1-methyl-2-oxo-1,2-dihydroquinoline-3-carboxamide]
39	Cn1c(=O)c(C#N)c(N2CCC(Cc3nc4ccccc4s3)CC2)c2ccccc21 [Example 93, 4-{4-[(1,3-benzothiazol-2-yl)methyl]piperidin-1-yl}-1-methyl-2-oxo-1,2-dihydroquinoline-3-carbonitrile]
16	Cc1ccccc1COC1CCN(c2c(C#N)c(=O)n(C)c3ccccc23)CC1 [Example 114, 1-methyl-4-{4-[(2-methylphenyl)methoxy]piperidin-1-yl}-2-oxo-1,2-dihydroquinoline-3-carbonitrile]
2	Cc1ccc2c(c1)c(N1CCC(Sc3ccccc3)CC1)c(C#N)c(=O)n2C [Example 142, 1,6-dimethyl-2-oxo-4-[4-(phenylsulfanyl)piperidin-1-yl]-1,2-dihydroquinoline-3-carbonitrile]
7.1	Cc1ccc(COC2CCN(c3c(C(N)=O)c(=O)n(C)c4ccccc34)CC2)cc1 [Example 122, 1-methyl-4-{4-[(4-methylphenyl)methoxy]piperidin-1-yl}-2-oxo-1,2-dihydroquinoline-3-carboxamide]
0.9	Cn1c(=O)c(C(N)=O)c(N2CCC(Oc3ccc(OC(F)(F)F)cc3)CC2)c2ccccc21 [Example 48, 1-methyl-2-oxo-4-{4-[4-(trifluoromethoxy)phenoxy]piperidin-1-yl}-1,2-dihydroquinoline-3-carboxamide]
8.3	Cn1c(=O)c(C#N)c(N2CCC(OCc3ccccc3)CC2)c2ccccc21 [Example 106, 4-[4-(benzyloxy)piperidin-1-yl]-1-methyl-2-oxo-1,2-dihydroquinoline-3-carbonitrile]
122	Cn1c(=O)c(C(N)=O)c(N2CCC(Oc3ccc(Cl)cc3)CC2)c2ccc(N3CCCC3=O)cc21 [Example 97, 4-[4-(4-chlorophenoxy)piperidin-1-yl]-1-methyl-2-oxo-7-(2-oxopyrrolidin-1-yl)-1,2-dihydroquinoline-3-carboxamide]
4.7	COc1ccc2c(N3CCC(Oc4ccccc4)CC3)c(C#N)c(=O)n(C)c2c1 [Example 89, 7-methoxy-1-methyl-2-oxo-4-(4-phenoxypiperidin-1-yl)-1,2-dihydroquinoline-3-carbonitrile]
4.4	Cn1c(=O)c(C#N)c(N2CCC(Oc3ccc(OC(F)(F)F)cc3)CC2)c2cc(C#N)ccc21 [Example 145, 1-methyl-2-oxo-4-{4-[4-(trifluoromethoxy)phenoxy]piperidin-1-yl}-1,2-dihydroquinoline-3,6-dicarbonitrile]
1.1	Cn1c(=O)c(C#N)c(N2CCC(Sc3ccccc3)CC2)c2ccccc21 [Example 53, 1-methyl-2-oxo-4-[4-(phenylsulfanyl)piperidin-1-yl]-1,2-dihydroquinoline-3-carbonitrile]
1240	Cn1c(=O)c(C#N)c(N2CCC(Oc3ccc(OC(F)(F)F)cc3)CC2)c2cc(Cl)ccc21 [Example 157, 6-chloro-1-methyl-2-oxo-4-{4-[4-(trifluoromethoxy)phenoxy]piperidin-1-yl}-1,2-dihydroquinoline-3-carbonitrile]
10	CC(OC1CCN(c2c(C#N)c(=O)n(C)c3ccccc23)CC1)c1ccccc1 (racemic) [Example 112, (rac)-1-methyl-2-oxo-4-[4-(1-phenylethoxy)piperidin-1-yl]-1,2-dihydroquinoline-3-carbonitrile]
